Where two headings read alike, the source gives them in different places.
Columns and labels:
[1] = tested on: 60 clinical P. aeruginosa isolates; assay: Antibiotic susceptibility testing, NEG MIC Type 30 panel on MicroScan WalkAway-96 SI, MICs interpreted according to NCCLS guidelines; type: cell-based, Pseudomonas aeruginosa; settings: for MIC: Pseudomonas aeruginosa, read-out: 60 MIC
Excerpt: The wild-type reference strain P. aeruginosa PAO1 was obtained from the ATCC (AT47085). The other P. aeruginosa strains were collected from patients at the Robert Bosch Hospital in Stuttgart, Germany. They were recovered from respiratory samples (n=51), swabs (n=5), urine (n=2) and faeces (n=2). All isolates were identified with the API 20NE system (bioMerieux, Marcy l'Etoile, France) and the NEG Breakpoint Combo Type 30 panel on the MicroScan WalkAway®-96 SI system (Dade Behring, Liederbach, Germany). All bacterial strains were either routinely cultured at 37° C. on Mueller-Hinton (MH) agar or grown in Luria Bertani broth (LB).
(§1) The antibiotic susceptibility was determined with the NEG MIC Type 30 panel on the MicroScan WalkAway®-96 SI system. The MICs were interpreted according to the NCCLS guidelines.
The test collective of P. aeruginosa isolates was recovered from three intensive care units (ICU) or other hospital wards as far as an unusual multidrug resistance was observed. […] 4.

[2] = tested on: 60 clinical P. aeruginosa isolates; parameters: species or system Pseudomonas aeruginosa; settings: predicted from mutations and resistance genes found by array in 60 isolates
Description: The 60 P. aeruginosa isolates were tested with the array applying the same hybridization conditions. Tab.
In order to compare genotype and phenotype based resistance profiles, we calculated a cumulative resistance rate against different groups of antibiotics based on the array data (Tab. 6).

[3] = tested on: 3 consecutive Pseudomonas aeruginosa isolates from the same patient; assay: Phenotypic susceptibility profile of 3 consecutive isolates from the same patient; type: cell-based; settings: S/R phenotype
Description: as §1

[4] = Table 3, P. aeruginosa test collective
[5] = Table 6, phenotypic resistance rate
[6] = Table 6, MIC tied to the resistant isolates, NCCLS interpretation

Compound | MIC [1] | % of resistant isolates out of 60 [1, 4] | Number of resistant isolates out of 60 [1, 4] | Number of resistant isolates out of 60 ([1]; Table 6, phenotypic resistance) | % of resistant isolates out of 60 [1, 5] | 60 MIC [1, 6] | susceptibility rate ([1]; test collective of isolates) | MIC [1, 6] | Cumulative resistance predicttion deduced from array [2] | Susceptibility profile, Isolate 2 ([3]; collected one week after the first isolate) | Susceptibility profile, Isolate 1 ([3]; first isolate) | Susceptibility profile, Isolate 3 ([3]; last of three isolates collected within three weeks) | resistance rate ([1]; test collective of isolates)
NCC[C@H](O)C(=O)N[C@@H]1C[C@H](N)[C@@H](O[C@H]2O[C@H](CN)[C@@H](O)[C@H](O)[C@H]2O)[C@H](O)[C@H]1O[C@H]1O[C@H](CO)[C@@H](O)[C@H](N)[C@H]1O [Amikacin, amikacin] | > 32 µg/mL | 17% | 10 | 10 | 17% |  |  |  |  |  |  |  | 
CC(C)(O/N=C(\C(=O)N[C@@H]1C(=O)N2C(C(=O)[O-])=C(C[n+]3ccccc3)CS[C@H]12)c1csc(N)n1)C(=O)O [Ceftazidim, ceftazidime] |  | 33% | 20 | 20 | 33% | >16 µg/mL |  |  |  |  |  |  | 
C[C@@H](O)[C@H]1C(=O)N2C(C(=O)O)=C(SCCN=CN)C[C@H]12 [Imipenem, imipenem] | > 8 µg/mL | 45% | 27 | 27 | 45% |  | less than 55% |  |  |  |  |  | 
C[C@H]1COc2c(N3CCN(C)CC3)c(F)cc3c(=O)c(C(=O)O)cn1c23 [Levofloxacin, levofloxacin] | > 4 µg/mL | 43% | 26 | 26 | 43% |  |  |  |  |  |  |  | 
CCN1CCN(C(=O)N[C@@H](C(=O)N[C@@H]2C(=O)N3[C@@H]2SC(C)(C)[C@@H]3C(=O)O)c2ccccc2)C(=O)C1=O [Piperacillin, piperacillin] |  | 35% | 21 | 21 | 35% |  |  | > 64 µg/mL | 38% |  |  |  | 
NC[C@H]1O[C@H](O[C@H]2[C@H](O)[C@@H](O[C@H]3O[C@H](CO)[C@@H](O)[C@H](N)[C@H]3O)[C@H](N)C[C@@H]2N)[C@H](N)C[C@@H]1O [Tobramycin, tobramycin] | > 8 µg/mL | 10% | 6 | 6 | 10% |  |  |  |  | susceptible | susceptible | resistance | 
colistin |  | 0% | 0 | 0 | 0% |  |  |  | 0% |  |  |  | 0%
gentamicin |  | 37% | 22 | 22 | 37% | >8 µg/mL |  |  | 45% |  |  |  | 

— patent US20060211002A1, “Antibiotic susceptibility and virulence factor detection in Pseudomonas aeruginosa” (priority 2005, published 2006)
